# According to US6566081B1, “Methods of identifying a compound which modulates the non-transcriptional non-map-kinase induced effects of steroid hormones” (The Brigham and Women's Hospital, Inc., priority 1999, dated 2003):
# Assays:
# eNOS = target: T1, eNOS (Mus musculus, UniProt P70313); test: Cremaster eNOS activity in mice; assay type: in vivo; details: L-NAME 0.1 mM, E2-treated mice
# T1 construct: from tissue; host or cells: cremaster muscle of male C57BL/6 mice
# Experimental: (§1) Mice were anesthetized and the cremaster muscle was studied under intravital microscopy^28. Ischemia was induced by applying pressure to supplying arteries just sufficient to stop blood flow for 30 min. In some experiments, wortmannin (100 nM) or L-NAME (0.1 mM) was applied to the cremaster muscle during the ischemic period. The pressure was released for reperfusion, and the same vessels were recorded in each animal before and after I/R. The rolling velocities of 25 leukocytes were measured in each venule; sorted and averaged for each rank to construct cumulative histograms. The velocities of 3,750 leukocytes were measured in 150 venules before and after I/R. The number of firmly adherent leukocytes was measured before and after I/R in the same 200 μm long segments of venules. The following number of venules were studies for leukocyte adhesion: Untreated, 15 venules; E2-treated, 20 venules; E2-treated with wortmannin, 25 venules; E2-treated with L-NAME, 15 venules. Cremaster eNOS activity was measured in 3 untreated, 4 E2-treated, 5 E2-treated with wortmannin, and 4 E2-treated with L-NAME mice.
# [1] = system: mouse cremaster muscle venules; test: Model of vascular injury: ischemia and reperfusion in the mouse cremaster muscle (leukocyte rolling and adhesion); assay type: in vivo; details: wortmannin 100 nM or L-NAME 0.1 mM during ischemia
# Experimental: as §1, with “venules.” for “venules. The following number of venules were studies for leukocyte adhesion: Untreated, 15 venules; E2-treated, 20 venules; E2-treated with wortmannin, 25 venules; E2-treated with L-NAME, 15 venules. Cremaster eNOS activity was measured in 3 untreated, 4 E2-treated, 5 E2-treated with wortmannin, and 4 E2-treated with L-NAME mice.”
# ERα-p85α interaction = target: T2, ERα-p85α interaction (Homo sapiens, UniProt P03372); test: GST fusion protein-affinity purification (GST-p85α and recombinant ERα, cell-free); assay type: binding; details: recombinant ERα, Hsp90 0.5 μg
# T2 construct: purchased Panvera (ERα)
# Experimental: Human recombinant GST-p85α fusion protein or GST (Sigma, St. Louis, Mo.) bound to glutathione-agarose beads (1 μg protein/20 μL beads) were suspended in 400 μL of E. Coli protein extract solution (10 mg/mL) and incubated with 1 μg human recombinant ERα (Panvera, Madison, Wis.) for 1 h at 4° C. The samples were pelleted, and the beads were washed 5 times with a buffer containing 50 mM potassium phosphate, pH 7.5, 150 mM KCl, 1 mM MgCl2, 10% (v/v) glycerol, 1% (v/v) Triton X-100 plus protease inhibitors. The beads were re-suspended in 50 μL of 2×Laemmli's buffer and boiled for 5 min. Proteins were separated on SDS-polyacrylamide gel electrophoresis.
# T2 sequence (P03372 whole entry, the tested form may be a part): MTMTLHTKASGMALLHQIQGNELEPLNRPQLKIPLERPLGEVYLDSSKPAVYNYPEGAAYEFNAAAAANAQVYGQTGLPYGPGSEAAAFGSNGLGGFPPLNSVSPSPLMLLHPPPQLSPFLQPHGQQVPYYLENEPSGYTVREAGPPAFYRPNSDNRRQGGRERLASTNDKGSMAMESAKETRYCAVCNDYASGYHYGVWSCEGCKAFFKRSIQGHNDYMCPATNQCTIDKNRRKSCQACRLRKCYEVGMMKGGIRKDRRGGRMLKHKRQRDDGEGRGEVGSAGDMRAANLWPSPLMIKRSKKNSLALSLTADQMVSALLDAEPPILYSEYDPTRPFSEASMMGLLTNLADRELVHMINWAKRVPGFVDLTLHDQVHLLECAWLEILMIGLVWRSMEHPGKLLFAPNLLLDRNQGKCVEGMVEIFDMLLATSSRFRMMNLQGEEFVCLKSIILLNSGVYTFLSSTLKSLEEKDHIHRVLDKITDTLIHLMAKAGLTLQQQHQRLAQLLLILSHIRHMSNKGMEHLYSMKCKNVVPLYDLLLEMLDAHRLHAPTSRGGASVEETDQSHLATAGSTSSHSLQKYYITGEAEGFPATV
# T2 sequence (P27986 whole entry partner, the tested form may be a part): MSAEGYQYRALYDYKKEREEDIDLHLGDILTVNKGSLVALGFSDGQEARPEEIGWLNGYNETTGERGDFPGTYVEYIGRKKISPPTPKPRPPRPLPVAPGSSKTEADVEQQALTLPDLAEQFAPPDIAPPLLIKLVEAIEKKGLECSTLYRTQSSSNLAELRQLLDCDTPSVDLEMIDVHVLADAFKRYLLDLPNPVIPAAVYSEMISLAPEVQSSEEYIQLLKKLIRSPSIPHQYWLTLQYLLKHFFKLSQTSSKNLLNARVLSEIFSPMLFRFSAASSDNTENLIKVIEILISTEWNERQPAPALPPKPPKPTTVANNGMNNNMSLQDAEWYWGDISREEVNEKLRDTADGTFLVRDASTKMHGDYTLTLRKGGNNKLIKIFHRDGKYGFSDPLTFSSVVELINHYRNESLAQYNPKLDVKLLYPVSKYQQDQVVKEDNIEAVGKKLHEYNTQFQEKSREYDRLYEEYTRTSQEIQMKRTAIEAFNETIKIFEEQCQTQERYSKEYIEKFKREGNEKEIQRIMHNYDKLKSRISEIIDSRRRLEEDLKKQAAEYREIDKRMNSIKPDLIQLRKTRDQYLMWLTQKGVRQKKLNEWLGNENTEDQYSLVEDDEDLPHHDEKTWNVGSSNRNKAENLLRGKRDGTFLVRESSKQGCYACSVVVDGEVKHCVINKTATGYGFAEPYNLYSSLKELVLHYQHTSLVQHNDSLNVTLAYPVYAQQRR
# T1 sequence (P70313 2-1202): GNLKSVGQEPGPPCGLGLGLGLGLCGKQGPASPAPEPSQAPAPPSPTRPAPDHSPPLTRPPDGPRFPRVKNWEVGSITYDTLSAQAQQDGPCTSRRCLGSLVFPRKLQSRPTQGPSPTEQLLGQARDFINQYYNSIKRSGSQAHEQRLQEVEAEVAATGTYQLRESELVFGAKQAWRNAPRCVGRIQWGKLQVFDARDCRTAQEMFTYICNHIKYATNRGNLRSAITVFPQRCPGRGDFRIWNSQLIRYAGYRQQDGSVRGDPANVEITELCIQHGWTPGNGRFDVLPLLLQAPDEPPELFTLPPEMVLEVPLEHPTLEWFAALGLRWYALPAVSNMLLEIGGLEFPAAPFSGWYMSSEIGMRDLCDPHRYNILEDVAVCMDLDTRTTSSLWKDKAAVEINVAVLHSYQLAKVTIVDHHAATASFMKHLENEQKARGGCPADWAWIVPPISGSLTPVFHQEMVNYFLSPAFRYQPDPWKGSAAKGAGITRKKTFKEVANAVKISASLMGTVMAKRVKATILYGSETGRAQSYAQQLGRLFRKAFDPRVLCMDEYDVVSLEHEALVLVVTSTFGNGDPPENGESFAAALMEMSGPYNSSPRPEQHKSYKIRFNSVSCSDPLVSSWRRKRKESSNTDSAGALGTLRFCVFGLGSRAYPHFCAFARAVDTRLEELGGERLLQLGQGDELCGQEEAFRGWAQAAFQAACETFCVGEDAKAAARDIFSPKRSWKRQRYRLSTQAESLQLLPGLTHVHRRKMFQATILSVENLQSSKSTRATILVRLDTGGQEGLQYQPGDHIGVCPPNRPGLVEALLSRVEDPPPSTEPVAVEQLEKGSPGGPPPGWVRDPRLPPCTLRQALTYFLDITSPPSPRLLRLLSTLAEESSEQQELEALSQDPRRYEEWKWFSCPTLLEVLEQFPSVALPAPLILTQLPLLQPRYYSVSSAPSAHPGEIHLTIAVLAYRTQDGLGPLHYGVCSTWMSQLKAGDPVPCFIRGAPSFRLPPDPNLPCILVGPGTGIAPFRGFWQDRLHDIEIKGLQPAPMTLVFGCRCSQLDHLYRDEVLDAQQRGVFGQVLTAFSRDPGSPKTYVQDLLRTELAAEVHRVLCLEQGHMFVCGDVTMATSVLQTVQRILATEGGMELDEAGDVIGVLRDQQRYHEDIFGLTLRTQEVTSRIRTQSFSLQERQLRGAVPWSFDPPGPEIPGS
Compound,effect of applied inhibitor on cremaster eNOS activity (eNOS),"leukocyte rolling velocity and accumulation, untreated vs E2-treated mice following I/R, with inhibitor applied to the cremaster muscle [1]",effect on interaction of ERα and p85α (ERα-p85α interaction),effect on interaction of ERα and p85α (ERα-p85α interaction; listed as Hsp90)
"COC(=O)[C@@H](N)CCCNC(=N)N[N+](=O)[O-] [L-NAME, L-nitroarginine methylester]",decreased eNOS activity below that of untreated mice,not different,–,–
Heat shock protein 90: heat shock protein that binds and facilitates the function of ER and eNOS,–,–,inhibited,inhibits
